Laboratory results as given in patent US20250269072A1, “PROCESSES FOR PREPARING RADIOLABELLED CONJUGATES” (CENTENARY INSTITUTE OF CANCER MEDICINE AND CELL BIOLOGY, priority 2021, published 2025).
Several values for one entry are separate records, joined by “and”; a condition that tells them apart may be missing. Equal values may be shown once.

Assays:
[1] = In-human study of ^68Ga-CDI: radiation dosimetry (OLINDA/EXM 1.1); assay type: in vivo; conditions: 5 participants
From the text: Activity concentrations derived above were entered into OLINDA/EXM 1.1 and bi-exponential curves fitted using the curve fitting tools within OLINDA/EXM 1.1 (Stabin et al., J Nucl Med. 2005; 46:1023-1027).

[2] = tested on: squamous cell carcinoma lymph node metastases; assay: Histological correlation (TUNEL) with ^68Ga-CDI uptake; assay type: in vivo, human; conditions: subject 3, right axillary and right cervical nodal metastases
From the text: In one subject, who proceeded to surgical excision of the tumor deposits 1 day after the ^68Ga-CDI PET scan, histological correlation of the tumor deposits were undertaken using haematoxylin and eosin staining and TUNEL staining to specifically identify dead and dying cells. Representative samples of the formalin fixed surgical specimens (following completion of all clinical analysis and excess to that required for archival purposes) from the right axillary and right cervical nodal masses were selected and provided by the reporting clinical pathologist. The tissues were fixed, rehydrated with ethanol and xylene and embedded in paraffin. A series of 4 μm thick sections were cut and stained with Haematoxylin and Eosin. Apoptotic cells were stained using the TUNEL assay kit HRP-DAB (Abcam, Cat #206386, Cambridge, MA, USA) according to manufacturer's protocol. Briefly, 4 μm sections of paraffin embedded tumor were deparaffinized in xylene and rehydrated in decreasing concentrations of ethanol. Tumor sections were permeabilized with Proteinase K for 20 min at room temperature. The endogenous peroxidase activity was quenched with 3% H2O2 for 5 min. Apoptotic cells were labelled with biotinylated Terminal deoxynucleotidyl Transferase (TdT) at 37° C. in humidified chamber for 2 h followed by a 30 min incubation with streptavidin-HRP conjugate. […]

[3] = Human radiation dosimetry estimated from rat biodistribution (OLINDA/EXM); assay type: in vivo, human (standard adult male); conditions: from rat data
Protocol: For the voiding bladder model it was assumed that patients would void 1 hour following administration.

In the case of `O=C(O)CNC(=O)[C@H](CSCC(=O)Nc1ccc([As](O)O)cc1)NC(=O)CC[C@H](NC(=O)CCC1C(=O)[O][68Ga]2[O]C(=O)CN3CCN(CCN1CC3)CC(=O)[O]2)C(=O)O` (stereo partly drawn) [^68Ga-NODAGA-GSAO], the “Estimated radiation dose, Average” value ([1]; Adrenals) is reported as 1.28E−02 mSv/MBq, the “Estimated radiation dose, Average” value ([1]; Brain) is reported as 1.75E−03 mSv/MBq and the “Estimated radiation dose, Average” value ([1]; Breasts) is reported as 7.03E−03 mSv/MBq. For the same molecule, the “Estimated radiation dose, Average” value ([1]; Effective dose, listed as 68Ga-CDI) was 2.17E-02±4.61E-03 mSv/MBq and 2.17E−02 mSv/MBq, the “Estimated radiation dose, Average” value ([1]; Gallbladder Wall) was 8.16E−03 mSv/MBq and the “Estimated radiation dose, Average” value ([1]; Heart Wall) was 1.02E−02 mSv/MBq. The “Estimated radiation dose, Average” value ([1]; Kidneys, listed as 68Ga-CDI) was 4.89E-02±3.55E-03 mSv/MBq and 4.89E−02 mSv/MBq, the “Estimated radiation dose, Average” value ([1]; LLI Wall) was 1.91E−02 mSv/MBq and the “Estimated radiation dose, Average” value ([1]; Liver) was 1.61E−02 mSv/MBq. For the same molecule, the “Estimated radiation dose, Average” value ([1]; Lungs) was 7.75E−03 mSv/MBq, the “Estimated radiation dose, Average” value ([1]; Muscle) was 8.96E−03 mSv/MBq and the “Estimated radiation dose, Average” value ([1]; Osteogenic Cells) was 1.13E−02 mSv/MBq. The “Estimated radiation dose, Average” value ([1]; Ovaries) was 1.20E−02 mSv/MBq, the “Estimated radiation dose, Average” value ([1]; Pancreas) was 1.52E−02 mSv/MBq and the “Estimated radiation dose, Average” value ([1]; Red Marrow) was 8.89E−03 mSv/MBq. For the same molecule, the “Estimated radiation dose, Average” value ([1]; Skin) was 5.39E−03 mSv/MBq, the “Estimated radiation dose, Average” value ([1]; Small Intestine) was 1.45E−02 mSv/MBq and the “Estimated radiation dose, Average” value ([1]; Spleen) was 1.59E−02 mSv/MBq. For the same molecule, the “Estimated radiation dose, Average” value ([1]; Stomach Wall) was 1.00E−02 mSv/MBq, the “Estimated radiation dose, Average” value ([1]; Testes) was 1.67E−02 mSv/MBq and the “Estimated radiation dose, Average” value ([1]; Thymus) was 6.32E−03 mSv/MBq. The “Estimated radiation dose, Average” value ([1]; Thyroid) was 1.26E−02 mSv/MBq, the “Estimated radiation dose, Average” value ([1]; Total Body) was 9.66E−03 mSv/MBq and the “Estimated radiation dose, Average” value ([1]; ULI Wall) was 1.23E−02 mSv/MBq. The “Estimated radiation dose, Average” value ([1]; Urinary Bladder Wall, listed as 68Ga-CDI) was 2.79E-01±1.11E-01 mSv/MBq and 2.79E−01 mSv/MBq, the “Estimated radiation dose, Average” value ([1]; Uterus) was 2.63E−02 mSv/MBq and the “TUNEL positive cells versus intensity of uptake” value [2] was “correlated”. For the same molecule, the Alpha dose ([3]; Adrenals) was 0.00E000 mSv/MBq, the Beta dose ([3]; Adrenals) was 2.13E−03 mSv/MBq and the “ED Cont.” value ([3]; Adrenals) was 2.01E−05 mSv/MBq. The Total dose ([3]; Adrenals) was 4.02E−03 mSv/MBq, the Alpha dose ([3]; Brain) was 0.00E000 mSv/MBq and the Beta dose ([3]; Brain) was 8.15E−04 mSv/MBq. The “ED Cont.” value ([3]; Brain) was 6.94E−06 mSv/MBq, the Total dose ([3]; Brain) was 1.39E−03 mSv/MBq and the Alpha dose ([3]; Breasts) was 0.00E000 mSv/MBq. The Beta dose ([3]; Breasts) was 2.13E−03 mSv/MBq, the “ED Cont.” value ([3]; Breasts) was 1.51E−04 mSv/MBq and the Total dose ([3]; Breasts) was 3.02E−03 mSv/MBq. For the same molecule, the Alpha dose ([3]; Gallbladder Wall) was 0.00E000 mSv/MBq, the Beta dose ([3]; Gallbladder Wall) was 2.13E−03 mSv/MBq and the “ED Cont.” value ([3]; Gallbladder Wall) was 0.00E000 mSv/MBq. It also gave a Total dose ([3]; Gallbladder Wall) of 4.28E−03 mSv/MBq, an Alpha dose ([3]; Heart Wall) of 0.00E000 mSv/MBq and a Beta dose ([3]; Heart Wall) of 3.09E−03 mSv/MBq. The “ED Cont.” value ([3]; Heart Wall) was 0.00E000 mSv/MBq, the Photon dose ([3]; Heart Wall) was 1.55E−03 mSv/MBq and the Total dose ([3]; Heart Wall) was 4.65E−03 mSv/MBq. The Alpha dose ([3]; Kidneys) was 0.00E000 mSv/MBq, the Beta dose ([3]; Kidneys) was 2.27E−02 mSv/MBq and the “ED Cont.” value ([3]; Kidneys) was 1.31E−04 mSv/MBq. It also gave a Photon dose ([3]; Kidneys) of 3.56E−03 mSv/MBq, a Total dose ([3]; Kidneys) of 2.62E−02 mSv/MBq and an Alpha dose ([3]; LLI Wall) of 0.00E000 mSv/MBq. For the same molecule, the Beta dose ([3]; LLI Wall) was 2.13E−03 mSv/MBq, the “ED Cont.” value ([3]; LLI Wall) was 8.67E−04 mSv/MBq and the Total dose ([3]; LLI Wall) was 7.23E−03 mSv/MBq. For the same molecule, the Alpha dose ([3]; Liver) was 0.00E000 mSv/MBq, the Beta dose ([3]; Liver) was 4.76E−03 mSv/MBq and the “ED Cont.” value ([3]; Liver) was 3.40E−04 mSv/MBq. It also gave a Photon dose ([3]; Liver) of 2.04E−03 mSv/MBq, a Total dose ([3]; Liver) of 6.80E−03 mSv/MBq and an Alpha dose ([3]; Lungs) of 0.00E000 mSv/MBq. For the same molecule, the Beta dose ([3]; Lungs) was 5.42E−03 mSv/MBq, the “ED Cont.” value ([3]; Lungs) was 8.16E−04 mSv/MBq and the Total dose ([3]; Lungs) was 6.80E−03 mSv/MBq. For the same molecule, the Alpha dose ([3]; Muscle) was 0.00E000 mSv/MBq, the “ED Cont.” value ([3]; Muscle) was 2.09E−05 mSv/MBq and the Total dose ([3]; Muscle) was 4.18E−03 mSv/MBq. The Alpha dose ([3]; Osteogenic Cells) was 0.00E000 mSv/MBq, the Beta dose ([3]; Osteogenic Cells) was 3.31E−03 mSv/MBq and the “ED Cont.” value ([3]; Osteogenic Cells) was 4.98E−05 mSv/MBq. The Total dose ([3]; Osteogenic Cells) was 4.98E−03 mSv/MBq, the Alpha dose ([3]; Ovaries) was 0.00E000 mSv/MBq and the Beta dose ([3]; Ovaries) was 2.13E−03 mSv/MBq. The “ED Cont.” value ([3]; Ovaries) was 1.40E−03 mSv/MBq, the Total dose ([3]; Ovaries) was 7.02E−03 mSv/MBq and the Alpha dose ([3]; Pancreas) was 0.00E000 mSv/MBq. For the same molecule, the Beta dose ([3]; Pancreas) was 3.87E−03 mSv/MBq, the “ED Cont.” value ([3]; Pancreas) was 2.95E−05 mSv/MBq and the Total dose ([3]; Pancreas) was 5.90E−03 mSv/MBq. The Alpha dose ([3]; Red Marrow) was 0.00E000 mSv/MBq, the Beta dose ([3]; Red Marrow) was 1.49E−03 mSv/MBq and the “ED Cont.” value ([3]; Red Marrow) was 4.05E−04 mSv/MBq. It also gave a Total dose ([3]; Red Marrow) of 3.38E−03 mSv/MBq, an Alpha dose ([3]; Skin) of 0.00E000 mSv/MBq and a Beta dose ([3]; Skin) of 2.13E−03 mSv/MBq. For the same molecule, the “ED Cont.” value ([3]; Skin) was 3.19E−05 mSv/MBq, the Total dose ([3]; Skin) was 3.19E−03 mSv/MBq and the Alpha dose ([3]; Small Intestine) was 0.00E000 mSv/MBq. The Beta dose ([3]; Small Intestine) was 5.18E−03 mSv/MBq, the “ED Cont.” value ([3]; Small Intestine) was 4.10E−05 mSv/MBq and the Photon dose ([3]; Small Intestine) was 3.03E−03 mSv/MBq. It also gave a Total dose ([3]; Small Intestine) of 8.21E−03 mSv/MBq, an Alpha dose ([3]; Spleen) of 0.00E000 mSv/MBq and a Beta dose ([3]; Spleen) of 4.05E−03 mSv/MBq. The “ED Cont.” value ([3]; Spleen) was 2.95E−05 mSv/MBq, the Total dose ([3]; Spleen) was 5.91E−03 mSv/MBq and the Alpha dose ([3]; Stomach Wall) was 0.00E000 mSv/MBq. For the same molecule, the Beta dose ([3]; Stomach Wall) was 2.61E−03 mSv/MBq, the “ED Cont.” value ([3]; Stomach Wall) was 5.06E−04 mSv/MBq and the Photon dose ([3]; Stomach Wall) was 1.61E−03 mSv/MBq. The Total dose ([3]; Stomach Wall) was 4.22E−03 mSv/MBq, the Alpha dose ([3]; Testes) was 0.00E000 mSv/MBq and the Beta dose ([3]; Testes) was 2.21E−03 mSv/MBq. For the same molecule, the “ED Cont.” value ([3]; Testes) was 0.00E000 mSv/MBq, the Total dose ([3]; Testes) was 5.69E−03 mSv/MBq and the Alpha dose ([3]; Thymus) was 0.00E000 mSv/MBq. The Beta dose ([3]; Thymus) was 4.48E−03 mSv/MBq, the “ED Cont.” value ([3]; Thymus) was 2.92E−05 mSv/MBq and the Total dose ([3]; Thymus) was 5.84E−03 mSv/MBq. The Alpha dose ([3]; Thyroid) was 0.00E000 mSv/MBq, the Beta dose ([3]; Thyroid) was 2.13E−03 mSv/MBq and the “ED Cont.” value ([3]; Thyroid) was 1.64E−04 mSv/MBq. The Total dose ([3]; Thyroid) was 3.28E−03 mSv/MBq, the Alpha dose ([3]; Total Body) was 0.00E000 mSv/MBq and the Beta dose ([3]; Total Body) was 2.68E−03 mSv/MBq. For the same molecule, the “ED Cont.” value ([3]; Total Body) was 0.00E000 mSv/MBq, the Total dose ([3]; Total Body) was 4.61E−03 mSv/MBq and the Alpha dose ([3]; ULI Wall) was 0.00E000 mSv/MBq. The Beta dose ([3]; ULI Wall) was 2.53E−03 mSv/MBq, the “ED Cont.” value ([3]; ULI Wall) was 2.58E−05 mSv/MBq and the Photon dose ([3]; ULI Wall) was 2.63E−03 mSv/MBq. It also gave a Total dose ([3]; ULI Wall) of 5.18E−03 mSv/MBq, an Alpha dose ([3]; Urinary Bladder Wall) of 0.00E000 mSv/MBq and a Beta dose ([3]; Urinary Bladder Wall) of 2.84E−01 mSv/MBq. The “ED Cont.” value ([3]; Urinary Bladder Wall) was 1.62E−02 mSv/MBq, the Total dose ([3]; Urinary Bladder Wall) was 3.24E−01 mSv/MBq and the Alpha dose ([3]; Uterus) was 0.00E000 mSv/MBq. The Beta dose ([3]; Uterus) was 2.13E−03 mSv/MBq, the “ED Cont.” value ([3]; Uterus) was 5.77E−05 mSv/MBq and the Total dose ([3]; Uterus) was 1.15E−02 mSv/MBq. For the same molecule, the “dose to urinary bladder wall (dose limiting organ)” value [3] was 0.32 mSv/MBq, the “whole body effective dose” value [3] was 2.13E-02 mSv/MBq and 0.021 mSv/MBq and the “whole body effective dose” value ([3]; injected activity 150 MBq) was 3.2 mSv.
